{
  "source": "patent US20100003311A1",
  "about": "“Antimicrobial Composition” (priority 2006, published 2010)",
  "key": {"human keratinocytes": {"system": "human keratinocytes", "test": "β-defensin production in culture medium containing human keratinocytes contacted with the compositions (FIG. 1)", "type": "cell-based", "conditions": "compared with lipopolysaccharide", "from_the_text": "The data was obtained by measuring β-defensin production in culture medium containing human keratinocytes when contacted with the various compositions."}, "[1]": {"system": "epithelial surfaces (both mucosa and skin)", "test": "release of β-defensin 2 by epithelial surfaces", "from_the_text": "The stimulation of β-defensin 2 by hyaluronic acid has been observed by the patent inventor. […] The application of hyaluronic acid to the skin is thought to increase the amount of innate immunity antibiotic peptides such as β-defensin 2 that are present and therefore provide an increased level of innate immunity. The stimulation of defensin and other innate immunity antibiotic peptide expression in sites of skin and mucosa injury may therefore facilitate tissue repair by providing innate immunity and decreasing the possible bacterial contamination and colonisation of tissues by opportunistic pathogens."}},
  "data": [
    {"substance": "hyaluronic acid", "values": [
      {"measurement": "stimulation of β-defensin production", "setting": "human keratinocytes", "result": "stimulates β-defensin production by human keratinocytes significantly, and considerably more than lipopolysaccharide"},
      {"measurement": "release of β-defensin 2", "setting": "[1]", "result": "able to determine the release of β-defensin 2 by epithelial surfaces"}
    ]}
  ]
}
